# From EP1254251B1, “NEUROSTEROIDS AS MARKERS FOR ALZHEIMER'S DISEASE” (Georgetown University, priority 2000, dated 2001)
# Experiments:
# MGM-1 human glioma cells = test: ROS measurement by 2,7-DCF fluorescence; type: cell-based; conditions: MGM-1, 50 mM Aβ, vs control, p < 0.01
# Protocol: β-Amyloid Regulation of the Alternative Pathway: MGM-1 cells were plated on 96 well (~5,000 cells/well, for ROS measurements) or 24 well (~15,000 cells/well, for D measurements) plates (Corning Costar, Acton, MA). At the same time, 1 mg Ab (Ab (1-42), AnaSpec Inc., San Jose, CA) was dissolved in 0.5 ml serum-free media and incubated at 4C for aggregation. 24 hours later, cells were incubated in DMEM with 10% fetal bovine serum and […] or […] and 10 mM Vitamin E (Sigma, St. Louis, MO). Control samples were incubated in DMEM with 10% FBS. Cells were incubated at 37C and 6% CO2 for at least 12 hours and processed for ROS generation (see below) or D synthesis as described above for the alternative experiments.
# Treatment media was removed and the cells were washed with PBS. The fluorescent probe 2,7- dichlorofluorescin diacetate (2,7-DCF, Molecular Probes, Inc., Eugene, OR) was used to measure levels of oxidative stress (48). Cells were incubated with […] 2,7-DCF, fluorescence was measured at 485nm/535nm using the Victor^2 Multilabel Counter (EG&G Wallac, Gaithersburg, MD) and values of cellular fluorescence were obtained.
# MGM-1 = test: Alternative pathway D synthesis in cells treated with FeSO4, or with Ab with or without Vitamin E (TLC, RIA); type: cell-based, human; conditions: MGM-1, 50 mM Aβ, vs control, p < 0.01
# Protocol: Alternative Pathway: To determine the amount ofD synthesized by the alternative pathway cells were treated as previously described. (15). In brief, cells were washed and oligodendrocytes and astrocytes were incubated with increasing concentrations of FeSO4 in serum free media, with and without SU 10603 (10 mM); neurons were incubated in serum free media containing 5 mM P plus FeSO4 with and without 10 mM SU 10603. After two hours, cells and media were homogenized and extracted as described above. Extracts were run on C 18 TLC plates (Whatman, Clifton, NJ) with a mobile phase of 95% methanol (v/v); radiolabeled standards for P, progesterone, and D were run on each plate, and appropriate steroid fractions were collected for each sample. TLC fractions were extracted with 2 ml diethyl ether (Fluka, New York) and evaporated. TLC extracts were assayed by specific radioimmunoassay (RIA). […]
# RIA using antibodies specific for each steroid (ICN Pharmaceuticals, Costa Mesa, CA Mesa) was used to measure P, progesterone and D levels. The data were analyzed using the IBM-PC RIA Data Reduction Program (version 4.1) from Jaffe and Associates (Silver Spring, MD). Levels of β-amyloid species in AD and control brain samples were analyzed using 4G8 (Senetex PLC, Napa, CA), a monoclonal antibody to β-amyloid peptide that recognizes amino acids 17-24. […]
substance,measurement,setting,value
"Ab: Ab (1-42), AnaSpec Inc.; β-amyloid, a component of Alzheimer's disease plaques","2,7-DCF fluorescence (ROS)",MGM-1 human glioma cells,significant increase
same,D levels,MGM-1,increased D levels significantly
